# In publication PMC7272617 (Scientific Reports, 2020):
# Where a SMILES comes first, the peptide text is derived from it. Bridges are numbered along the chain shown (N, C = ends). [ ]: non-standard residue; d: D form. The star is where a group is joined. X1 = CC[C@H](C)CCCCC(=O)*; Dab = NCC[C@H](N)C(=O)O
# Tests used:
# [1] = system: MDR P. aeruginosa clinical isolate No.5; settings: MDR P. aeruginosa clinical isolate No.5
# [2] = system: MDR P. aeruginosa clinical isolate No.2; settings: MDR P. aeruginosa clinical isolate No.2
# [3] = system: MDR P. aeruginosa clinical isolate No.11; settings: MDR P. aeruginosa clinical isolate No.11
# [4] = system: MDR P. aeruginosa clinical isolate No.8; settings: MDR P. aeruginosa clinical isolate No.8
# [5] = system: MDR P. aeruginosa clinical isolate No.10; settings: MDR P. aeruginosa clinical isolate No.10
# [6] = system: MDR P. aeruginosa clinical isolate No.4; settings: MDR P. aeruginosa clinical isolate No.4
# [7] = system: MDR P. aeruginosa clinical isolate No.12
# [8] = system: MDR P. aeruginosa clinical isolate No.7; settings: MDR P. aeruginosa clinical isolate No.7
# [9] = system: MDR P. aeruginosa clinical isolate No.3; settings: MDR P. aeruginosa clinical isolate No.3
# [10] = system: MDR P. aeruginosa clinical isolate No.6; settings: MDR P. aeruginosa clinical isolate No.6
# [11] = system: MDR P. aeruginosa clinical isolate No.1
# [12] = system: Pseudomonas aeruginosa ATCC 27853; settings: P. aeruginosa ATCC 27853; MHB, 10^7 CFU/ml, 37 °C, 24 h, no visible turbidity
# [13] = system: MDR P. aeruginosa clinical isolate No.9; settings: MDR P. aeruginosa clinical isolate No.9
# [14] = system: MDR P. aeruginosa clinical isolate No.14; settings: MDR P. aeruginosa clinical isolate No.14
# [15] = system: MDR P. aeruginosa clinical isolate No.13; settings: MDR P. aeruginosa clinical isolate No.13
# [16] = system: Vibrio cholera O1 Inaba DMST 16261; settings: MHB, 37 °C, 24 h
# [17] = system: Listeria monocytogenes 10403 s; settings: Listeria monocytogenes 10403 s; MHB, 37 °C, 24 h
# [18] = system: all Gram-negative strains; test: Mean MIC and therapeutic index, Gram-negative strains; assay type: cell-based; settings: 7 Gram-negative strains of Table 3
# Description: (§1) The antimicrobial activity of the peptides was determined against both Gram-positive and -negative bacteria including 14 MDR P. aeruginosa clinical isolates from Bhumibol Adulyadej Hospital (Tables 1 and 3). The minimal inhibitory concentration (MIC) of each peptide was measured according to a modification of the National Committee for Clinical Laboratory Standards (NCCLS) broth microdilution method as previously described. Briefly, bacterial cells in mid-log phase were cultured in Müeller-Hinton broth (MHB) and then diluted to 10^7 CFU/ml. […] Plates were incubated at 37 °C for 24 h, and MICs were defined as the lowest concentration of peptide that prevented visible turbidity. Cultures without peptides and uninoculated MHB were employed as positive and negative controls, respectively. Colony count assays were performed to determine the minimal bactericidal concentrations (MBCs) for determination of time-killing activity. As previously described, a 50 μl aliquot from each non-turbid well identified in the MIC determination experiment was spread on agar plates.
# (§2) To further evaluate the global activity of these peptides, the geometric mean (GM) MIC and the therapeutic index (TI) of each were calculated (Table 3). The TI, a widely used parameter to evaluate cell selectivity and specificity of antimicrobial agents, was calculated as the ratio of MHC (the concentration that causes 10% hemolysis) to the geometric mean of MICs[22]. Higher TIs indicated greater cell selectivity and specificity.
# P. aeruginosa ATCC 27853 = test: Membrane permeability (PI) and depolarization (BOX), flow cytometry; assay type: cell-based, Pseudomonas aeruginosa; settings: 1 × MIC, 30 min; for permeabilized and depolarized cells (BOX+PI+): 37 °C, triplicate
# Description: Their outer and inner membranes provide important protection for Gram-negative bacteria. To assess membrane permeability and depolarization induced by PA-13, the DNA intercalating dyes propidium iodide (PI) and bis-(1,3-dibutylbarbituric acid) trimethine oxonol (BOX) were used as previously described. The fluorescence conferred by these dyes is generally associated with the loss of membrane integrity and potential, respectively.
# Briefly, P. aeruginosa ATCC 27853 was cultured to mid-logarithmic phase and harvested by centrifugation at 2,000 × g for 5 min. The bacterial cells were washed thrice with PBS and diluted to 10^7 CFU/ml in 50 ml of PBS. […] Bacterial pellets were harvested and washed with PBS by centrifugation at 10,000 × g for 10 min. […] Untreated bacterial cells (no peptide) served as a negative control, whereas bacterial cells treated with melittin served as a positive control. Data was recorded using a flow cytometer (CytoFlex, Beckman Coulter) at a laser excitation wavelength of 488 nm. Forward scatter (FS), side scatter (SS), green fluorescence (530/30 nm) from BOX and red fluorescence (585/42 nm) emitted by PI were collected using logarithmic scales. 25,000 cells, defined according to their scatter parameters, were counted in each sample. The experiments were performed in triplicate and the data was analyzed using Kaluza software.
# [19] = system: L929 mouse fibroblast cells; test: Cytotoxicity, MTT viability assay; settings: 250 µg/ml, 24 h, triplicate
# [20] = system: Bacillus cereus ATCC 11778; settings: Bacillus cereus ATCC 11778; MHB, 37 °C, 24 h
# [21] = system: Enterococcus faecalis ATCC 29212; settings: Enterococcus faecalis ATCC 29212; MHB, 37 °C, 24 h
# [22] = system: Staphylococcus epidermidis ATCC 12228; settings: S. epidermidis ATCC 12228; MHB, 37 °C, 24 h
# [23] = system: all Gram-positive strains; test: Mean MIC and therapeutic index, Gram-positive strains; assay type: cell-based; settings: 5 Gram-positive strains of Table 3
# Description: as §1, §2
# [24] = system: human red blood cells (hRBCs); test: Hemolytic activity, hemoglobin release; settings: 2% hRBC, 1 h, 37 °C
# Description: Hemolytic activity of the peptides was assayed against human red blood cells (hRBCs) by measuring the amount of hemoglobin released after treatment. The hRBCs, freshly collected from a healthy volunteer in polycarbonate tubes containing heparin, were washed three times in sterile phosphate buffered saline (PBS) and centrifuged at 2,000 × g for 5 min or until the supernatant became clear. […] After 1 h of incubation at 37 °C, intact hRBCs were pelleted by centrifugation at 2,000 × g for 10 min. The supernatant was transferred to a new 96-well plate and the release of hemoglobin was monitored by measurement of absorbance at 405 nm using a Multiskan FC microplate reader. The hRBCs in PBS only (ODBlank) and in 0.1% Triton X-100 (ODTriton X-100) were employed as negative (0% hemolysis) and positive (100% hemolysis) controls, respectively. The percentage of hemolysis was calculated according to the following equation: %Hemolysis=(ODSample−ABlank)/(ODTritonX−100−ODBlank)×100
# [25] = system: Salmonella Typhimurium ATCC 13311; settings: Salmonella Typhimurium ATCC 13311; MHB, 37 °C, 24 h
# [26] = system: Shigella sonnei ATCC 11060; settings: MHB, 37 °C, 24 h
# [27] = system: Escherichia coli O157:H7 MT strain; settings: E. coli O157:H7 MT strain; MHB, 37 °C, 24 h
# [28] = system: Acinetobacter baumannii MT strain; settings: Acinetobacter baumannii MT strain; MHB, 37 °C, 24 h
Molecule,MIC [1],MIC [2],MIC [3],MIC [4],MIC [5],MIC [6],MIC [7],MIC [8],MIC [9],MIC [10],MIC [11],MIC [12],MIC [13],MIC [14],MIC [15],other results
CC[C@H](C)CCCCC(=O)N[C@@H](CCN)C(=O)N[C@H](C(=O)N[C@@H](CCN)C(=O)N[C@H]1CCNC(=O)[C@H]([C@@H](C)O)NC(=O)[C@H](CCN)NC(=O)[C@H](CCN)NC(=O)[C@H](CC(C)C)NC(=O)[C@@H](CC(C)C)NC(=O)[C@H](CCN)NC1=O)[C@@H](C)O [Colistin] (X1-[Dab]T[Dab][Dab][Dab][dL]L[Dab][Dab]T; lactam 4-C (inferred); N-terminus assumed),1.95 µg/mL,1.95 µg/mL,1.95 µg/mL,0.98 µg/mL,1.95 µg/mL,1.95 µg/mL,1.95 µg/mL,0.98 µg/mL,1.95 µg/mL,1.95 µg/mL,1.95 µg/mL,≤0.98 µg/mL,0.98 µg/mL,0.98 µg/mL,0.98 µg/mL,
"CC[C@H](C)[C@H](NC(=O)CN)C(=O)NCC(=O)N[C@@H](C)C(=O)N[C@H](C(=O)N[C@@H](CC(C)C)C(=O)N[C@@H](CCCCN)C(=O)N[C@H](C(=O)N[C@@H](CC(C)C)C(=O)N[C@H](C(=O)N[C@H](C(=O)NCC(=O)N[C@@H](CC(C)C)C(=O)N1CCC[C@H]1C(=O)N[C@@H](C)C(=O)N[C@@H](CC(C)C)C(=O)N[C@H](C(=O)N[C@@H](CO)C(=O)N[C@@H](Cc1c[nH]c2ccccc12)C(=O)N[C@H](C(=O)N[C@@H](CCCCN)C(=O)N[C@@H](CCCNC(=N)N)C(=O)N[C@@H](CCCCN)C(=O)N[C@@H](CCCNC(=N)N)C(=O)N[C@@H](CCC(N)=O)C(=O)N[C@@H](CCC(N)=O)C(N)=O)[C@@H](C)CC)[C@@H](C)CC)[C@@H](C)O)[C@@H](C)O)C(C)C)C(C)C [Melittin, reference compound]",,,,,,,,,,,,15.63 µg/mL,,,,MIC [16]: 3.91 µg/mL; MIC [17]: 3.91 µg/mL; GM (Gr.− strains): geometric mean of MIC values from all Gram-negative strains [18]: 10.60 µg/mL; cell population BOX+PI- (P. aeruginosa ATCC 27853): 2.70%; cell population BOX-PI+ (P. aeruginosa ATCC 27853): 0.12%; cell population BOX-PI- (P. aeruginosa ATCC 27853): 3.14%; permeabilized and depolarized cells (BOX+PI+) (P. aeruginosa ATCC 27853): 94.04%; permeabilized and depolarized cells (BOX+PI+) (P. aeruginosa ATCC 27853; listed as melittin): 94.04 ± 3.25%; L929 cell survival at the maximum concentration [19]: less than 1%; MIC [20]: 3.91 µg/mL; MIC [21]: 1.95 µg/mL; MIC [22]: 3.91 µg/mL; GM (Gr.+ strains): geometric mean of MIC values from all Gram-positive strains [23]: 3.52 µg/mL; concentration at which hemolysis was complete (100%) [24]: 1950 ng/mL; MIC [25]: 3.91 µg/mL; MIC [26]: 3.91 µg/mL; MIC [27]: 7.81 µg/mL; MIC [28]: 7.81 µg/mL
Gentamycin,125 µg/mL,>125 µg/mL,>125 µg/mL,>125 µg/mL,>125 µg/mL,>125 µg/mL,125 µg/mL,125 µg/mL,>125 µg/mL,>125 µg/mL,>125 µg/mL,≤0.98 µg/mL,>125 µg/mL,>125 µg/mL,>125 µg/mL,
